Values after ≈ are worked out from the molar mass of the structure shown.
Assay: Solubility of ARN-509 forms in water
Assay type: physicochemical
Experimental: Solubility of Form A: 0.01 mg/ml in water.
Solubility of Form B: 0.004 mg/ml in water.

Row | SMILES | Solubility
1 | CNC(=O)c1ccc(N2C(=S)N(c3cnc(C#N)c(C(F)(F)F)c3)C(=O)C23CCC3)cc1F [Form A, 4-[7-(6-cyano-5-trifluoromethylpyridin-3-yl)-8-oxo-6-thioxo-5,7-diazaspiro[3.4]oct-5-yl]-2-fluoro-N-methylbenzamide] | 10 µg/mL (≈ 20.9 µM)
2 | CNC(=O)c1ccc(N2C(=S)N(c3cnc(C#N)c(C(F)(F)F)c3)C(=O)C23CCC3)cc1F [Form B, 4-[7-(6-cyano-5-trifluoromethylpyridin-3-yl)-8-oxo-6-thioxo-5,7-diazaspiro[3.4]oct-5-yl]-2-fluoro-N-methylbenzamide] | 4 µg/mL (≈ 8.38 µM)

Reference: patent publication US20190216829A1, “Anticancer Compositions” (ARAGON PHARMACEUTICALS, INC., priority 2016, published 2019)
